Assay results: EPA's ToxRefDB 2

Columns and labels:
mouse [1] = details: Carcinogenicity, b6c3f1, Oral, Feed, dose end: 105 week, group: systemic
rat [2] = details: Subchronic oral toxicity in rodents, fischer, Feed, dose end: 13 week, group: systemic
rat [3] = details: Subchronic oral toxicity in rodents, fischer, Feed, dose end: 13 week, group: systemic; remark: listed apart in the source
rat [4] = details: Sub-acute repeat dose toxicity; fischer; Oral; Feed; dose end: 14 day; group: systemic; systemic / in life observation / clinical signs / feces, discoloration + systemic / in life observation / food consumption / food …
rat [5] = details: Combined chronic toxicity/carcinogenicity; fischer; Oral; Feed; dose end: 104 week; group: systemic; systemic / pathology microscopic / adrenal gland / pheochromocytoma benign + systemic / pathology microscopic / adrenal gland / …
mouse [6] = details: Sub-acute repeat dose toxicity; b6c3f1; Oral; Feed; dose end: 14 day; group: systemic; systemic / in life observation / clinical signs / feces, discoloration
mouse [7] = details: Subchronic oral toxicity in rodents, b6c3f1, Feed, dose end: 13 week, group: systemic
mouse [8] = details: Subchronic oral toxicity in rodents, b6c3f1, Feed, dose end: 13 week, group: systemic; remark: listed apart in the source
rat [9] = details: Carcinogenicity; fischer; Oral; Feed; dose end: 105 week; group: systemic; systemic / in life observation / body weight / body weight + systemic / pathology microscopic / kidney / nephropathy + systemic / pathology …
mouse [10] = details: Combined chronic toxicity/carcinogenicity; b6c3f1; Oral; Feed; dose end: 104 week; group: systemic; systemic / pathology microscopic / blood / lymphoma malignant + systemic / pathology microscopic / ovary / interstitial stromal tumor + …
[11] = systemic / pathology microscopic / spleen / hematopoietic cell proliferation + systemic / pathology microscopic / testes / degeneration
[12] = systemic / pathology microscopic / spleen / hematopoietic cell proliferation + systemic / pathology microscopic / testes / degeneration + …
[13] = systemic / organ weight / liver / absolute + systemic / organ weight / liver / relative to body weight
[14] = systemic / clinical chemistry / bile acids / bile acids + systemic / in life observation / food consumption / food consumption + systemic / …
[15] = systemic / organ weight / epididymis / absolute + systemic / organ weight / testes / absolute + systemic / organ weight / testes / relative …
[16] = systemic / organ weight / testes / absolute
[17] = systemic / organ weight / epididymis / nos + systemic / organ weight / liver / absolute + systemic / organ weight / testes / absolute + …

Structure (SMILES): O=C1OC(c2ccc(O)cc2)(c2ccc(O)cc2)c2ccccc21 [Phenolphthalein]
- LOAEL (mouse [1]; [11]): 300 mg/kg/day
- NOAEL (mouse [1]; [11]): < 300 mg/kg/day
- LEL (mouse [1]; [12]): 300 mg/kg/day
- NEL (mouse [1]; [12]): < 300 mg/kg/day
- LOAEL (rat [2]; [13]): > 3500 mg/kg/day
- NEL (rat [2]; [13]): 400 mg/kg/day
- NOAEL (rat [2]; [13]): ≥ 3500 mg/kg/day
- LEL (rat [2]; systemic / organ weight / liver / relative to body weight): 800 mg/kg/day
- LEL (rat [3]; systemic / clinical chemistry / bile acids / bile acids): 383 mg/kg/day
- LOAEL (rat [3]; [14]): > 3490 mg/kg/day
- NEL (rat [3]; [14]): 192 mg/kg/day
- NOAEL (rat [3]; [14]): ≥ 3490 mg/kg/day
- LEL (rat [4]): 10500 mg/kg/day
- LOAEL (rat [4]): > 10500 mg/kg/day
- NEL (rat [4]): 4500 mg/kg/day
- NOAEL (rat [4]): ≥ 10500 mg/kg/day
- LEL (rat [5]): 500 mg/kg/day
- LOAEL (rat [5]): > 2000 mg/kg/day
- NEL (rat [5]): < 500 mg/kg/day
- NOAEL (rat [5]): ≥ 2000 mg/kg/day
- LEL (mouse [6]): 15000 mg/kg/day
- LOAEL (mouse [6]): > 15000 mg/kg/day
- NEL (mouse [6]): 7500 mg/kg/day
- NOAEL (mouse [6]): ≥ 15000 mg/kg/day
- LOAEL (mouse [7]; [15]): 2000 mg/kg/day
- NOAEL (mouse [7]; [15]): 1000 mg/kg/day
- LEL (mouse [7]; [16]): 500 mg/kg/day
- NEL (mouse [7]; [16]): < 500 mg/kg/day
- LOAEL (mouse [8]; [17]): > 9140 mg/kg/day
- NOAEL (mouse [8]; [17]): ≥ 9140 mg/kg/day
- LEL (mouse [8]; [16]): 509 mg/kg/day
- NEL (mouse [8]; [16]): < 509 mg/kg/day
- LEL (rat [9]): 500 mg/kg/day
- LOAEL (rat [9]): 500 mg/kg/day
- NEL (rat [9]): < 500 mg/kg/day
- NOAEL (rat [9]): < 500 mg/kg/day
- LEL (mouse [10]): 300 mg/kg/day
- LOAEL (mouse [10]): > 1200 mg/kg/day
- NEL (mouse [10]): < 300 mg/kg/day
- NOAEL (mouse [10]): ≥ 1200 mg/kg/day
